Consider 57 molecules from patent US8748452B2, “Indolizine derivative and use thereof for medical purposes” (Kissei Pharmaceutical Co., Ltd., priority 2009, dated 2014).

pIC50: −log10 of the molar value.

T1 sequence (P80457 whole entry): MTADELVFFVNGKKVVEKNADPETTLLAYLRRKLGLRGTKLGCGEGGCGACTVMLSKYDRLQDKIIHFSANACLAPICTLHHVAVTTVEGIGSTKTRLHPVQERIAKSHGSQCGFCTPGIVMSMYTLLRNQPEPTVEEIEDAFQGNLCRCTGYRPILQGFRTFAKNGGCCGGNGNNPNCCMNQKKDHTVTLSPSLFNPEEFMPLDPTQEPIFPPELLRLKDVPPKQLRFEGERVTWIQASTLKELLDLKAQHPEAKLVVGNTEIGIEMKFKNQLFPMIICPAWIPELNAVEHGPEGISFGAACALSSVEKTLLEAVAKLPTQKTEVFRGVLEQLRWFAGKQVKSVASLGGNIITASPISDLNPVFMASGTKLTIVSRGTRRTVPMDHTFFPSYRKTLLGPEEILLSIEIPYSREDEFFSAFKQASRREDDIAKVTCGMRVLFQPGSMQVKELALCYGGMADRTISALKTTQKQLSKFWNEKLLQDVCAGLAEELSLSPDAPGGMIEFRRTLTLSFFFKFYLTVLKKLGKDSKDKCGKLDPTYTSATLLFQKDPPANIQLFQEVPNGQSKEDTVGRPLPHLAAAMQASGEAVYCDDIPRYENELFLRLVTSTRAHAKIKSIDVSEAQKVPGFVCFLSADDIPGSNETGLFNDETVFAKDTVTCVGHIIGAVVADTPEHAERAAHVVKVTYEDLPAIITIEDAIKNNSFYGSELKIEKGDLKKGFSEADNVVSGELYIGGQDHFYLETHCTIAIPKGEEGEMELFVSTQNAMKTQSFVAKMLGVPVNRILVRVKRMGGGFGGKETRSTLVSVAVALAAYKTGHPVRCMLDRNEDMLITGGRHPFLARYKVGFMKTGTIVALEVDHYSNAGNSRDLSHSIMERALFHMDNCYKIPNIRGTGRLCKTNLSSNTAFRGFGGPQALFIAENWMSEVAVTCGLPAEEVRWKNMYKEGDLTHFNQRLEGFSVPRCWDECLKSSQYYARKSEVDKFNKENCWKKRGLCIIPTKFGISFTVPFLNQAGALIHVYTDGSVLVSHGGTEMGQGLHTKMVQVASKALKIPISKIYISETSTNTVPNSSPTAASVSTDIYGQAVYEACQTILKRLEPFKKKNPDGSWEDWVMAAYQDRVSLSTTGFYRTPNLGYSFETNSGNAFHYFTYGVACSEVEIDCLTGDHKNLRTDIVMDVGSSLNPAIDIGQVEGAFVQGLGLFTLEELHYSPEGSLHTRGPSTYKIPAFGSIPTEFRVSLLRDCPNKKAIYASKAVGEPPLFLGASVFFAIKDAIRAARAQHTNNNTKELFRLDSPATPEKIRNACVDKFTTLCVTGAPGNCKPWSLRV

One assay concerns the target T1, Xanthine oxidase (from bovine milk, Sigma) (Bos taurus, UniProt P80457).
T1 construct: Xanthine oxidase (from bovine milk, Sigma); purchased Sigma; host or cells: bovine milk
The assay can be described thus: Xanthine oxidase inhibitory activity. The assay is classed as biochemical. Particulars: xanthine oxidase from bovine milk 0.02 units/mL, xanthine 200 μM, 10 minutes at room temperature, absorbance at 290 nm. The procedure:
(1) Preparation of test compounds
Test compounds were dissolved in DMSO (Wako pure chemical) at 40 mM concentration and then diluted to intended concentrations with phosphate-buffered saline (PBS).
(2) Method for measurement
Xanthine oxidase (from bovine milk, Sigma) was prepared with phosphate-buffered saline (PBS) at 0.02 units/mL, and then the solution was added to 96 well plates at 50 μL/well. In addition, test compounds diluted with PBS were added at 50 μL/well. Xanthine (Wako pure chemical) at 200 μM prepared with PBS was added at 100 μL/well, and the mixture was reacted for 10 minutes at room temperature. Absorbance at 290 nm was measured using a microplate reader SpectraMax Plus 384 (Molecular device). The absorbance under a condition without xanthine is 0%, and control without test compounds is 100%. Fifty % inhibitory concentration (IC50) of test compounds was calculated (Table 17). Ex. No. in the table indicates Example number.
Turning to `CC(C)(C)c1ccn2c(-c3ccc(C(=O)O)cc3)cc(C#N)c2c1` [Example 43], the pIC50 is 8.70.
The same measure, in the same setting: to `CCc1cccn2c(-c3ccc(C(=O)O)c(O)c3)cc(C#N)c12` [Example 24] belongs 8.22; to `COc1cc2c(C#N)cc(-c3ccc(C(=O)O)cc3)n2cc1C` [Example 46], 8.10.
Same read-out and setting: under `N#Cc1cc(-c2cnc(C(=O)O)c(O)c2)n2ccccc12` [Example 65] stands 8.10; under `Cc1ccn2c(-c3ccc(C(=O)O)c(F)c3)cc(C#N)c2c1F` [Example 34], 8.00; under `COc1cc2c(C#N)cc(-c3ccc(C(=O)O)c(O)c3)n2cc1C` [Example 60], 7.82.
Molecule `N#Cc1ccn2c(-c3ccc(C(=O)O)c(O)c3)cc(C#N)c2c1` [Example 54] had a pIC50 of 8.52.
`N#Cc1cc(-c2ccc(C(=O)O)nc2)n2ccccc12` [Example 70] showed a pIC50 of 7.74.
On to `Cc1ccn2c(-c3ccc(C(=O)O)cc3)cc(C#N)c2c1C` [Example 38], for which the pIC50 is 8.30.
Same read-out and setting: to `Cc1c(Cl)ccn2c(-c3ccc(C(=O)O)c(O)c3)cc(C#N)c12` [Example 52] belongs 8.70; to `Cc1cc(C)c2c(C#N)cc(-c3ccc(C(=O)O)cc3)n2c1` [Example 6], 8.05; to `N#Cc1cc(-c2ccc(C(=O)O)cc2)n2cccc(F)c12` [Example 13], 8.05.
`N#Cc1cc(-c2ccc(C(=O)O)c(O)c2)n2ccc(C(F)(F)F)cc12` [Example 27]: the pIC50 is 8.30.
On the same count and under the same terms, under `N#Cc1cc(-c2ccc(C(=O)O)c(N)c2)n2ccccc12` [Example 30, 2-Amino-4-(1-cyanoindolizine-3-yl) benzoic acid] stands 8.10.
On to `Cc1ccc2c(C#N)cc(-c3ccc(C(=O)O)c(O)c3)n2c1` [Example 20], for which the pIC50 is 8.30.
Consider `CC(C)(O)c1ccn2c(-c3ccc(C(=O)O)cc3)cc(C#N)c2c1` [Example 44], for which the pIC50 is 8.52.
Take `Cc1c(Cl)ccn2c(-c3ccc(C(=O)O)cc3)cc(C#N)c12` [Example 39]: the pIC50 was 8.10.
The same measure, in the same setting: under `Cc1ccn2c(-c3cnc(C(=O)O)c(O)c3)cc(C#N)c2c1F` [Example 67] stands 8.70.
Same read-out and setting: under `N#Cc1cc(-c2ccc(C(=O)O)cc2)n2cc(F)ccc12` [Example 14] stands 7.74; under `CN(C)c1ccn2c(-c3ccc(C(=O)O)c(O)c3)cc(C#N)c2c1` [Example 59], 8.00; under `N#Cc1cc(-c2ccc(C(=O)O)s2)n2ccccc12` [Example 28], 8.52.
Still for that read-out and setting: to `N#Cc1cc(-c2ccc(C(=O)O)c(O)c2)n2ccccc12` [Example 17, 4-(1-Cyanoindolizine-3-yl)-2-hydroxybenzoic acid] belongs 8.40; to `N#Cc1c(F)c(-c2ccc(C(=O)O)cc2)n2ccccc12` [Example 61, 4-(1-Cyano-2-fluoroindolizine-3-yl) benzoic acid], 7.17.
Molecule `Cc1ccn2c(-c3ccc(C(=O)O)cc3)cc(C#N)c2c1Cl` [Example 37] showed a pIC50 of 8.40.
On the same count and under the same terms, to `Cc1ccn2c(-c3cnc(C(=O)O)c(O)c3)cc(C#N)c2c1` [Example 66] belongs 8.70; to `Cc1ccn2c(-c3ccc(C(=O)O)c(O)c3)cc(C#N)c2c1F` [Example 23], 8.52.
On the same count and under the same terms, under `CCc1ccn2c(-c3ccc(C(=O)O)cc3)cc(C#N)c2c1` [Example 10] stands 8.10.
On the same count and under the same terms, to `N#Cc1cc(-c2ccc(C(=O)O)c(O)c2)n2cccc(F)c12` [Example 25] belongs 8.30.
Turning to `Cc1ccn2c(-c3ccc(C(=O)O)c(O)c3)cc(C#N)c2c1Cl` [Example 50], the pIC50 was 8.70.
On the same count and under the same terms, to `N#Cc1cc(-c2ccc(C(=O)O)cc2)n2ccc(C(F)(F)F)cc12` [Example 15] belongs 8.00.
The same measure, in the same setting: under `N#Cc1cc(-c2ccc(C(=O)O)cc2)n2ccccc12` [Example 1, 4-(1-Cyanoindolizine-3-yl) benzoic acid] stands 8.15; under `Cc1cc2c(C#N)cc(-c3ccc(C(=O)O)cc3)n2cc1Cl` [Example 36], 8.10.
Same read-out and setting: under `COc1ccn2c(-c3ccc(C(=O)O)cc3)cc(C#N)c2c1` [Example 45] stands 8.30; under `N#Cc1c(F)c(-c2ccc(C(=O)O)c(O)c2)n2ccccc12` [Example 62, 4-(1-Cyano-2-fluoroindolizine-3-yl)-2-hydroxybenzoic acid], 8.40; under `Cc1cc(C)c2c(C#N)cc(-c3ccc(C(=O)O)c(O)c3)n2c1` [Example 21], 8.40.
As for `N#Cc1cc(-c2ccc(C(=O)O)c(F)c2)n2ccccc12` [Example 33], the pIC50 was 7.52.
Still for that read-out and setting: under `CC(C)(C)c1ccn2c(-c3ccc(C(=O)O)c(O)c3)cc(C#N)c2c1` [Example 56] stands 8.70; under `CC(C)Oc1ccn2c(-c3ccc(C(=O)O)cc3)cc(C#N)c2c1C(F)(F)F` [Example 47, 4-(1-Cyano-7-isopropoxy-8-trifluoromethylindolizine-3-yl) benzoic acid], 8.70.
On the same count and under the same terms, under `Cc1cccn2c(-c3ccc(C(=O)O)c(O)c3)cc(C#N)c12` [Example 19] stands 8.52; under `N#Cc1cc(-c2ccc(C(=O)O)c(O)c2)n2ccc(-c3cnco3)cc12` [Example 57], 8.40.
The same measure, in the same setting: under `CCc1ccc2c(C#N)cc(-c3ccc(C(=O)O)cc3)n2c1` [Example 12] stands 7.96.
The molecule `Cc1ccn2c(-c3ccc(C(=O)O)cc3)cc(C#N)c2c1` [Example 2] showed a pIC50 of 8.40.
Same read-out and setting: to `Cc1ccn2c(-c3ccc(C(=O)O)c(O)c3)cc(C#N)c2c1C` [Example 51] belongs 8.30; to `N#Cc1cc(-c2ccc(C(=O)O)cc2)n2ccc(Br)cc12` [Example 64], 8.10.
Take `Cc1ccn2c(-c3ccc(C(=O)O)cc3)cc(C#N)c2c1F` [Example 7]: the pIC50 was 8.30.
In the case of `N#Cc1cc(-c2ccc(C(=O)O)cc2)n2ccc3c(c12)CCCC3` [Example 9], the negative logarithm of the IC50 (pIC50) was 8.52.
The same measure, in the same setting: to `COc1cccn2c(-c3ccc(C(=O)O)cc3)cc(C#N)c12` [Example 41] belongs 8.30; to `N#Cc1cc(-c2ccc(C(=O)O)cc2)n2cccc(Cl)c12` [Example 3], 8.22.
On the same count and under the same terms, to `Cc1cc2c(C#N)cc(-c3ccc(C(=O)O)c(O)c3)n2cc1Cl` [Example 49] belongs 8.70; to `CC(=O)c1ccn2c(-c3ccc(C(=O)O)c(O)c3)cc(C#N)c2c1` [Example 53], 8.52.
`Cc1cccn2c(-c3ccc(C(=O)O)cc3)cc(C#N)c12` [Example 4] had a pIC50 of 8.15.
On the same count and under the same terms, to `CC(C)c1ccn2c(-c3ccc(C(=O)O)cc3)cc(C#N)c2c1` [Example 42] belongs 8.40; to `CCc1cccn2c(-c3ccc(C(=O)O)cc3)cc(C#N)c12` [Example 11], 8.40; to `COc1ccn2c(-c3ccc(C(=O)O)c(O)c3)cc(C#N)c2c1` [Example 58], 8.70.
As for `N#Cc1cc(-c2ccc(C(=O)O)c(O)c2)n2cc(F)c(C(F)(F)F)cc12` [Example 48], the pIC50 is 8.22.
Still for that read-out and setting: under `N#Cc1cc(-c2ccc(C(=O)O)c(O)c2)n2ccc(CF)cc12` [Example 63, 4-(1-Cyano-7-fluoromethylindolizine-3-yl)-2-hydroxybenzoic acid] stands 8.10.
As to `Cc1nc(-c2cc(C#N)c3ccccn23)sc1C(=O)O` [Example 71], the pIC50 was 7.70.

A further assay relates to male CD (SD) IGS rats. The assay can be described thus: Serum hypouricemic effect. The class given is in vivo. Conditions: Rattus norvegicus; 1 mg/kg oral gavage, overnight fasted male rats, serum at 2 hours after administration; read-out: percent decrease in uric acid. Here is the method:
Test compounds at 1 mg/kg suspended in 0.5% methylcellulose solution were administered by oral gavage administration to overnight fasted male CD (SD) IGS rats (5-week-old, Charls River Japan). At 2 hours after administration, blood was collected under ether anesthesia from abdominal aorta, and serum was separated according to general method. Serum uric acid values were determined by use of uric acid measurement kit (Uric acid C-Test Wako: Wako pure chemical), and percent decrease in uric acid was calculated according to the formula described below. As a result, it was shown that compounds of Examples 2, 7, 10, 22, 23, 25, 37, 49, 50 and 58 have over 60% percent decrease in uric acid.
Percent decrease in uric acid (%)=(Serum uric acid values in control animals−Serum uric acid values in animals administered test compounds)×100/Serum uric acid values in control animals
Regarding `Cc1ccn2c(-c3ccc(C(=O)O)cc3)cc(C#N)c2c1Cl` [Example 37], the inhibition in vivo at 1 mg/kg is above 60%.
The same measure, in the same setting: to `Cc1ccn2c(-c3ccc(C(=O)O)c(O)c3)cc(C#N)c2c1F` [Example 23] belongs above 60%; to `CCc1ccn2c(-c3ccc(C(=O)O)cc3)cc(C#N)c2c1` [Example 10], above 60%.
In the case of `N#Cc1cc(-c2ccc(C(=O)O)c(O)c2)n2cccc(F)c12` [Example 25], the inhibition in vivo at 1 mg/kg is above 60%.
Regarding `Cc1ccn2c(-c3ccc(C(=O)O)c(O)c3)cc(C#N)c2c1Cl` [Example 50], the inhibition in vivo at 1 mg/kg is above 60%.
On the same count and under the same terms, to `Cc1ccn2c(-c3ccc(C(=O)O)cc3)cc(C#N)c2c1` [Example 2] belongs above 60%; to `Cc1ccn2c(-c3ccc(C(=O)O)cc3)cc(C#N)c2c1F` [Example 7], above 60%; to `Cc1cc2c(C#N)cc(-c3ccc(C(=O)O)c(O)c3)n2cc1Cl` [Example 49], above 60%.
On the same count and under the same terms, under `COc1ccn2c(-c3ccc(C(=O)O)c(O)c3)cc(C#N)c2c1` [Example 58] stands above 60%.
